Assay results from US20050026235A1 (priority 2003, published 2005).

Assays:
PLA2 = PLA2 (Apis mellifera, UniProt P00630); details: pH 8
[1] = molecular target: Clostridium perfringens PLC (Clostridium perfringens, UniProt P0C216)
PLA2 from bee venom = PLA2 from bee venom (Apis mellifera, UniProt P00630)
[2] = literature values (Cevc 1993; Adrian et al. 1992); cited from earlier work

Sequence of Clostridium perfringens PLC (P0C216 29-398 limits assumed): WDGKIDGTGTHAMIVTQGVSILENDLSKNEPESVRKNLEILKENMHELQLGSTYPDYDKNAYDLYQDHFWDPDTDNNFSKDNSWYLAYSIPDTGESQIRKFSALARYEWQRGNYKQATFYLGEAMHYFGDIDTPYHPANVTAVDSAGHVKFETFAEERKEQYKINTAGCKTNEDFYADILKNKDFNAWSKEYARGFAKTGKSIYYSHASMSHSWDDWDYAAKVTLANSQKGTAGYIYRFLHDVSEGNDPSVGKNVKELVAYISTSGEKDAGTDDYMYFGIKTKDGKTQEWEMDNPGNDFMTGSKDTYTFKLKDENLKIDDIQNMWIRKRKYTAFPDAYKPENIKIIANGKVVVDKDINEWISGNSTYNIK
Sequence of PLA2 (P00630 34-167 limits assumed): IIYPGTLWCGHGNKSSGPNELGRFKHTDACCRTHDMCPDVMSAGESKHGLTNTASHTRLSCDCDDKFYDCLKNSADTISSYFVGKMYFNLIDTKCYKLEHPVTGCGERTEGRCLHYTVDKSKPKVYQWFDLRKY
Sequence of PLA2 from bee venom (P00630 34-167 limits assumed): as above

1,2-dimyristoyl-sn-glycero-3-phosphoethanolamine-N-(Oregon Green 500, 5-isomer) [compound 84]
time until all substrate converted to polar product (PLA2): about 30 min

1,2-dioleoyl-sn-glycero-3-phosphoethanolamine-N-(Oregon Green® 488, 5-isomer) [compound 60]
cleavage activity [1]: no activity was observed

CCCCCCCCCCCCCCCCOCC(COCC(F)(F)F)OP(=O)(O)OC (centres unmarked) [inhibitor 122]
IC50 (PLA2 from bee venom): ~2000 nM

CCCCCCCCCCCCCC(=O)OC[C@H](COP(=O)([O-])OCC[N+](C)(C)C)OC(=O)CCCCCCCCCCCCC [DMPC]
CMC [2]: about 4 nM

CCCCCCCCCCCCCC(=O)OC[C@H](COP(=O)(O)OC[C@H](N)C(=O)O)OC(=O)CCCCCCCCCCCCC [DMPS]
CMC [2]: about 60 nM
